From patent publication US20210395679A1, “IN VITRO CELL CULTURE SYSTEM FOR PRODUCING HEPATOCYTE-LIKE CELLS AND USES THEREOF” (CHILDREN'S HOSPITAL MEDICAL CENTER, priority 2018, published 2021)

Target: T1, MRP4 (Homo sapiens, UniProt O15439)
T1 sequence (O15439 1-1325): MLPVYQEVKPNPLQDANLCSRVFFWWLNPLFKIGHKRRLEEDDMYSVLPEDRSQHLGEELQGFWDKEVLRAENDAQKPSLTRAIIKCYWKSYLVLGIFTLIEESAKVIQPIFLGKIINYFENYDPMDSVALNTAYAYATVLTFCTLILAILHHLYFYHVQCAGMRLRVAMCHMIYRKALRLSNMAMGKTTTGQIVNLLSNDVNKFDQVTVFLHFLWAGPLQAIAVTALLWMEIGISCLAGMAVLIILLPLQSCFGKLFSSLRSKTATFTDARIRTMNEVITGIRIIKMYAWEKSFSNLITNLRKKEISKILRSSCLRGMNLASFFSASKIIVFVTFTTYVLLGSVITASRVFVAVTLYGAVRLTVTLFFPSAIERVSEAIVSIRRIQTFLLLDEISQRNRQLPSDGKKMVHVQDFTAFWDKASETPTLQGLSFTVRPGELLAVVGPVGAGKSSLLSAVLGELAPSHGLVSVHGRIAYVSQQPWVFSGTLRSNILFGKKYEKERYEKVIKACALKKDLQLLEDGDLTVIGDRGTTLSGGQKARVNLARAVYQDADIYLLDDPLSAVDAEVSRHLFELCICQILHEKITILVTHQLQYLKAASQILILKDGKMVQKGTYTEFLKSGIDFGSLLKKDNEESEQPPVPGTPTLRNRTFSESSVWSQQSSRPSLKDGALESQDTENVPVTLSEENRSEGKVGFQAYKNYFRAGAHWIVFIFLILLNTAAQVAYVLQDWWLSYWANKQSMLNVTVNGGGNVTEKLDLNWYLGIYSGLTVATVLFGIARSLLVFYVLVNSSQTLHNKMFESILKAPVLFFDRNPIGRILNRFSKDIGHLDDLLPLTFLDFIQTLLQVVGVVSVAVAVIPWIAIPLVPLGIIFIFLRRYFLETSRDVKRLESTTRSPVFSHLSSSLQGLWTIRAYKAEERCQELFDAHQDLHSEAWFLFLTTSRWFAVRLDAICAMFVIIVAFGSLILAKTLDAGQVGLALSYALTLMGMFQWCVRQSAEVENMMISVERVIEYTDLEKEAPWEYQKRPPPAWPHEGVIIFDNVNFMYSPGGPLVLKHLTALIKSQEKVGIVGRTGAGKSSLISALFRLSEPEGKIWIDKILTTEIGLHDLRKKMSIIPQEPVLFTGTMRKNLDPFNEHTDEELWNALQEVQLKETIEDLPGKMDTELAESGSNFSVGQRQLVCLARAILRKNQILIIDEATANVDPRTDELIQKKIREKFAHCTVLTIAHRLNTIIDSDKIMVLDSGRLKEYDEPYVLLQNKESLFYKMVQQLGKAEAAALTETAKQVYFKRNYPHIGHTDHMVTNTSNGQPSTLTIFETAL
Experiment: Wash-out assay of intracellular-to-basolateral D4-TCA export with or without MRP4 inhibitor
Settings: normal i-Hep, 1 h D4-TCA 10 μM in the lower chamber, fresh medium with or without inhibitor

basolateral export of D4-TCA towards the lower chamber: did not alter the basolateral export
SMILES: Cn1c(CSc2nc3ccccc3s2)n[nH]c1=S [Ceefourin1]
